Eight compounds from BindingDB's records for doi:10.1002/cmdc.200500009 (Bayer Healthcare, 2006) can be followed below.

Structures are written as SMILES.

The assay addresses T1, Endothelin-converting enzyme 1 (Rattus norvegicus, UniProt P42893).
T1 sequence (P42893 whole entry): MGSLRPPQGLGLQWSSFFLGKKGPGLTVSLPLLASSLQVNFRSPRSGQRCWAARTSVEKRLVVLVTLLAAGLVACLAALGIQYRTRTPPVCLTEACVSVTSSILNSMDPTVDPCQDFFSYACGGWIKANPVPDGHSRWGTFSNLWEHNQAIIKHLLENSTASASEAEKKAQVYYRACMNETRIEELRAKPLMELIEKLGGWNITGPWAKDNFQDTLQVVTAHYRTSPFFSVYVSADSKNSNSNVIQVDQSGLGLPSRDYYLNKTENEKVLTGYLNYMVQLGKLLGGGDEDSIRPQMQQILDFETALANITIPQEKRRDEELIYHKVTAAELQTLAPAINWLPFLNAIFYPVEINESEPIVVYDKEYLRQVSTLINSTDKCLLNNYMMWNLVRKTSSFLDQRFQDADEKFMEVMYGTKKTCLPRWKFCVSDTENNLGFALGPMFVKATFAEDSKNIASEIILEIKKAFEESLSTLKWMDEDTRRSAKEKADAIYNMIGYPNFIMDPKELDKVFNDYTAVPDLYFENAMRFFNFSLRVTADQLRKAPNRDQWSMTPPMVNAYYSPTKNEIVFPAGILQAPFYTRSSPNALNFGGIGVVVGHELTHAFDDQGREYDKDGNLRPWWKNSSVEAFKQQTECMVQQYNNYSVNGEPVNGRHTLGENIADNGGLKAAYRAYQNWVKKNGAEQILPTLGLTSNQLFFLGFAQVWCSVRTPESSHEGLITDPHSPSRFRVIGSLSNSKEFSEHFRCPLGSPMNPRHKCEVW
Briefly: Inhibition Assay. From the text:
Inhibition assay using ECE.
As to `CC(C)(C)CC(=O)Nc1ccc2c(c1)cc(C(=O)Nc1ccc(Cl)nc1)n2Cc1ccccc1F` [ECE Inhibitor, 9], the IC50 (in general, the concentration needed to halve the response being measured) is 220 nM.
Under `CC(C)(C)CC(=O)Nc1ccc2c(c1)cc(C(=O)Nc1ccn[nH]1)n2Cc1ccccc1F` stands over 10000 nM; under `CC(C)(C)CC(=O)Nc1ccc2c(c1)cc(C(=O)Nc1nc3ccccc3[nH]1)n2Cc1ccccc1F` [ECE Inhibitor, 8], over 10000 nM.
For `CC(C)(C)CC(=O)Nc1ccc2c(c1)cc(C(=O)Nc1cncc(C(=O)Nc3ccc(S(N)(=O)=O)cc3)c1)n2Cc1ccccc1F` [ECE Inhibitor, 14] the value was 10 nM; for `CC(C)(C)CC(=O)Nc1ccc2c(c1)cc(C(=O)Nc1cncc(C(=O)O)c1)n2Cc1ccccc1F` [ECE Inhibitor, 13], 180 nM; for `CC(C)(C)CC(=O)Nc1ccc2c(c1)cc(C(=O)Nc1ccccc1)n2Cc1ccccc1F` [ECE Inhibitor, 6], 1800 nM.
In turn, `CC(C)(C)CC(=O)Nc1ccc2c(c1)cc(C(=O)Nc1ccc(S(=O)(=O)Nc3ccccn3)cc1)n2Cc1ccccc1F` [ECE Inhibitor, 10] yielded an IC50 of 410 nM.
Compound `CC(C)(C)CC(=O)Nc1ccc2c(c1)cc(C(=O)Nc1cccc(C(=O)Nc3ccc(S(N)(=O)=O)cc3)c1)n2Cc1ccccc1F` came in with an IC50 of 10 nM.
